Experiments:
Echinochloa crus-galli [1] = assay: Herbicidal effect test in submerged condition by treatment during weed-growth stage (1); assay type: in vivo; conditions: 0.64 g/a, treated at 1st to 2nd leaf stage, 3 weeks after treatment
Description: (§1) Herbicidal Effect Test in Submerged Condition by Treatment During Weed-Growth Stage (1) After alluvial soil was placed in a styrol cup of 1/30000 are, water was poured therein and mixed, and adjusted to a submerged condition of water depth 4 cm. After seeds of Echinochloa crus-galli, Scirpus juncoides and Monochoria vaginalis were sown in the cup, the plants were grown by putting the cup in a green house at 25 to 30° C. When Echinochloa crus-galli, Scirpus juncoides and Monochoria vaginalis reached 1st to 2nd leaf stage, the wettable powder of the present invention prepared according to Formulation Example 1 was diluted with water so as to give a predetermined formulation amount, and the surface of the water was treated with the diluted wettable powder. The herbicidal effect for each plant was investigated 3 weeks after treatment with the herbicide according to the criteria indicated in Test Example 1.

Monochoria vaginalis = assay: as above; assay type: in vivo; conditions: 0.64 g/a, treated at 1st to 2nd leaf stage, 3 weeks after treatment
Description: as §1

Scirpus juncoides = assay: as above; assay type: in vivo; conditions: 0.64 g/a, treated at 1st to 2nd leaf stage, 3 weeks after treatment
Description: as §1

Abutilon avicennae = assay: Herbicidal effect test by soil treatment; assay type: in vivo; conditions: 1.6 g/a, 3 weeks after treatment
From the text: (§2) Herbicidal Effect Test by Soil Treatment
(§3) Sterilized diluvial soil was placed in a plastic box having a size of length 21 cm, width 13 cm and depth 7 cm, seeds Echinochloa crus-galli, Digitaria adscendes, Setaria viridis, Avena fatua, Black-grass, Abutilon avicennae, Ambrosia elatior, Amaranthus retroflexus, Chenopodium album, Polygonum blumei, Stellaria media, Zea mays (corn), Glycine max (soybean), Oryza sativa (rice), Triticum aestivum (wheat) and Beta vulgaris (beat) were sown interspatially, covered with about 1.5 cm of soil, and then the wettable powder of the present invention prepared according to Formulation Example 1 was diluted with water so as to give a predetermined formulation amount, and the surface of the soil was uniformly treated with the diluted wettable powder by use of a small-sized spray. The herbicidal effect for each plant was investigated 3 weeks after treatment with the herbicide according to the criteria indicated in Test Example 1.

Amaranthus retroflexus = assay: Herbicidal effect test by soil treatment; assay type: in vivo; conditions: 1.6 g/a, 3 weeks after treatment
From the text: as §2, §3

Ambrosia elatior = assay: Herbicidal effect test by soil treatment; assay type: in vivo; conditions: 1.6 g/a, 3 weeks after treatment
From the text: as §2, §3

Avena fatua = assay: Herbicidal effect test by soil treatment; assay type: in vivo; conditions: 1.6 g/a, 3 weeks after treatment
From the text: as §2, §3

Beta vulgaris (beet) = assay: Herbicidal effect test by soil treatment; assay type: in vivo; conditions: 1.6 g/a, 3 weeks after treatment
From the text: as §2, §3

Black-grass = assay: Herbicidal effect test by soil treatment; assay type: in vivo; conditions: 1.6 g/a, 3 weeks after treatment
From the text: as §2, §3

Chenopodium album = assay: Herbicidal effect test by soil treatment; assay type: in vivo; conditions: 1.6 g/a, 3 weeks after treatment
From the text: as §2, §3

Digitaria adscendes = assay: Herbicidal effect test by soil treatment; assay type: in vivo; conditions: 1.6 g/a, 3 weeks after treatment
From the text: as §2, §3

Echinochloa crus-galli [2] = assay: Herbicidal effect test by soil treatment; assay type: in vivo; conditions: 1.6 g/a, 3 weeks after treatment
From the text: as §2, §3

Polygonum blumei = assay: Herbicidal effect test by soil treatment; assay type: in vivo; conditions: 1.6 g/a, 3 weeks after treatment
From the text: as §2, §3

Setaria viridis = assay: Herbicidal effect test by soil treatment; assay type: in vivo; conditions: 1.6 g/a, 3 weeks after treatment
From the text: as §2, §3

Stellaria media = assay: Herbicidal effect test by soil treatment; assay type: in vivo; conditions: 1.6 g/a, 3 weeks after treatment
From the text: as §2, §3

[3] = tested on: Triticum aestivum (wheat); assay: Herbicidal effect test by soil treatment; assay type: in vivo; conditions: 1.6 g/a, 3 weeks after treatment
From the text: as §2, §3

corn (Zea mays) = assay: Herbicidal effect test by soil treatment; assay type: in vivo; conditions: 1.6 g/a, 3 weeks after treatment
From the text: as §2, §3

soybean (Glycine max) = assay: Herbicidal effect test by soil treatment; assay type: in vivo; conditions: 1.6 g/a, 3 weeks after treatment
From the text: as §2, §3

direct sown rice = assay: Herbicidal effect test by soil treatment; assay type: in vivo, Oryza sativa; conditions: 1.6 g/a, 3 weeks after treatment
From the text: as §2, §3

In the case of `COc1cc(OC)nc(NC(=O)NS(=O)(=O)c2c(C3=NOC(C)CO3)c(C)nn2C)n1` (stereo not shown) [Compound 9, N-((4,6-dimethoxypyrimidin-2-yl)aminocarbonyl)-1,3-dimethyl-4-(6-methyl-5H,6H-1,4,2-dioxadin-3-yl)pyrazole-5-sulfonamide], the “herbicidal effect, A: Echinochloa crus-galli” value (Echinochloa crus-galli [1]) is reported as 5 (Herbicidal rate 90% or more (almost complete death)), the “herbicidal effect, C: Monochoria vaginalis” value (Monochoria vaginalis) is reported as 5 (Herbicidal rate 90% or more (almost complete death)) and the “herbicidal effect, B: Scirpus juncoides” value (Scirpus juncoides) is reported as 5 (Herbicidal rate 90% or more (almost complete death)). The “herbicidal effect, H: Abutilon avicennae” value (Abutilon avicennae) was 4 (Herbicidal rate 70% or more and less than 90%), the “herbicidal effect, J: Amaranthus retroflexus” value (Amaranthus retroflexus) was 5 (Herbicidal rate 90% or more (almost complete death)) and the “herbicidal effect, I: Ambrosia elatior” value (Ambrosia elatior) was 5 (Herbicidal rate 90% or more (almost complete death)). The “herbicidal effect, F: Avena fatua” value (Avena fatua) was 3 (Herbicidal rate 40% or more and less than 70%), the “herbicidal effect, f: Beta vulgaris (beet)” value (Beta vulgaris (beet)) was 5 (Herbicidal rate 90% or more (almost complete death)) and the “herbicidal effect, G: Black-grass” value (Black-grass) was 5 (Herbicidal rate 90% or more (almost complete death)). The “herbicidal effect, K: Chenopodium album” value (Chenopodium album) was 5 (Herbicidal rate 90% or more (almost complete death)), the “herbicidal effect, D: Digitaria adscendes” value (Digitaria adscendes) was 4 (Herbicidal rate 70% or more and less than 90%) and the “herbicidal effect, A: Echinochloa crus-galli” value (Echinochloa crus-galli [2]) was 4 (Herbicidal rate 70% or more and less than 90%). The “herbicidal effect, L: Polygonum blumei” value (Polygonum blumei) was 5 (Herbicidal rate 90% or more (almost complete death)), the “herbicidal effect, E: Setaria viridis” value (Setaria viridis) was 4 (Herbicidal rate 70% or more and less than 90%) and the “herbicidal effect, M: Stellaria media” value (Stellaria media) was 5 (Herbicidal rate 90% or more (almost complete death)). For the same molecule, the “herbicidal effect, e: Triticum aestivum (wheat)” value [3] was 5 (Herbicidal rate 90% or more (almost complete death)), the “herbicidal effect, b: corn (Zea mays)” value (corn (Zea mays)) was 5 (Herbicidal rate 90% or more (almost complete death)) and the “herbicidal effect, c: soybean (Glycine max)” value (soybean (Glycine max)) was 5 (Herbicidal rate 90% or more (almost complete death)). The “herbicidal effect, d: direct sown rice” value (direct sown rice) was 5 (Herbicidal rate 90% or more (almost complete death)).

— patent publication US7709636B2, “Pyrazole sulfonylurea compound and herbicide” (Nissan Chemical Industries, Ltd., priority 2004, dated 2010)
